Reference: patent publication US11324729B2, “NSD family inhibitors and methods of treatment therewith” (The Regents of the University of Michigan, priority 2017, dated 2022)
Like-named read-outs stand apart in the source and are kept apart here.

Columns and labels:
NSD1 [1] = target: T1, NSD1 (Homo sapiens, UniProt Q96L73); test: Mass spectrometry detection of covalent/irreversible binding to NSD1
T1 construct: 6 μM of 159 was incubated with 1 mM of NSD1 SET domain for 8 hours
T1 sequence (Q96L73 1852-2082 limits assumed): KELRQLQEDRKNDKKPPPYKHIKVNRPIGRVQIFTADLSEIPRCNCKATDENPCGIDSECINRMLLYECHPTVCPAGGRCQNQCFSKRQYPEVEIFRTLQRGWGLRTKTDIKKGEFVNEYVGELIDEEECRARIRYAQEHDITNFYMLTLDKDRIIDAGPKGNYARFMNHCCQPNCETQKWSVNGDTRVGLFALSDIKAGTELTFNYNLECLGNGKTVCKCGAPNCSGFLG
Protocol: (§1) 10 μM 151 was incubated with NSD1 for 20 h. B. HSQC spectrum of 150 μM NSD1 with 300 μM 151.
6 μM of 159 was incubated with 1 mM of NSD1 SET domain for 8 hours.
FIG. 7. […] Asterisk denotes covalent protein adduct with 198.

NSD1 [2] = target: NSD1 (Homo sapiens, UniProt Q96L73); test: HSQC NMR spectrum of NSD1 with compound; format: binding; settings: 150 μM NSD1 with 300 μM compound; including Cys2062
Protocol: as §1
Target sequence in this assay (Q96L73 whole entry, the tested form may be a part): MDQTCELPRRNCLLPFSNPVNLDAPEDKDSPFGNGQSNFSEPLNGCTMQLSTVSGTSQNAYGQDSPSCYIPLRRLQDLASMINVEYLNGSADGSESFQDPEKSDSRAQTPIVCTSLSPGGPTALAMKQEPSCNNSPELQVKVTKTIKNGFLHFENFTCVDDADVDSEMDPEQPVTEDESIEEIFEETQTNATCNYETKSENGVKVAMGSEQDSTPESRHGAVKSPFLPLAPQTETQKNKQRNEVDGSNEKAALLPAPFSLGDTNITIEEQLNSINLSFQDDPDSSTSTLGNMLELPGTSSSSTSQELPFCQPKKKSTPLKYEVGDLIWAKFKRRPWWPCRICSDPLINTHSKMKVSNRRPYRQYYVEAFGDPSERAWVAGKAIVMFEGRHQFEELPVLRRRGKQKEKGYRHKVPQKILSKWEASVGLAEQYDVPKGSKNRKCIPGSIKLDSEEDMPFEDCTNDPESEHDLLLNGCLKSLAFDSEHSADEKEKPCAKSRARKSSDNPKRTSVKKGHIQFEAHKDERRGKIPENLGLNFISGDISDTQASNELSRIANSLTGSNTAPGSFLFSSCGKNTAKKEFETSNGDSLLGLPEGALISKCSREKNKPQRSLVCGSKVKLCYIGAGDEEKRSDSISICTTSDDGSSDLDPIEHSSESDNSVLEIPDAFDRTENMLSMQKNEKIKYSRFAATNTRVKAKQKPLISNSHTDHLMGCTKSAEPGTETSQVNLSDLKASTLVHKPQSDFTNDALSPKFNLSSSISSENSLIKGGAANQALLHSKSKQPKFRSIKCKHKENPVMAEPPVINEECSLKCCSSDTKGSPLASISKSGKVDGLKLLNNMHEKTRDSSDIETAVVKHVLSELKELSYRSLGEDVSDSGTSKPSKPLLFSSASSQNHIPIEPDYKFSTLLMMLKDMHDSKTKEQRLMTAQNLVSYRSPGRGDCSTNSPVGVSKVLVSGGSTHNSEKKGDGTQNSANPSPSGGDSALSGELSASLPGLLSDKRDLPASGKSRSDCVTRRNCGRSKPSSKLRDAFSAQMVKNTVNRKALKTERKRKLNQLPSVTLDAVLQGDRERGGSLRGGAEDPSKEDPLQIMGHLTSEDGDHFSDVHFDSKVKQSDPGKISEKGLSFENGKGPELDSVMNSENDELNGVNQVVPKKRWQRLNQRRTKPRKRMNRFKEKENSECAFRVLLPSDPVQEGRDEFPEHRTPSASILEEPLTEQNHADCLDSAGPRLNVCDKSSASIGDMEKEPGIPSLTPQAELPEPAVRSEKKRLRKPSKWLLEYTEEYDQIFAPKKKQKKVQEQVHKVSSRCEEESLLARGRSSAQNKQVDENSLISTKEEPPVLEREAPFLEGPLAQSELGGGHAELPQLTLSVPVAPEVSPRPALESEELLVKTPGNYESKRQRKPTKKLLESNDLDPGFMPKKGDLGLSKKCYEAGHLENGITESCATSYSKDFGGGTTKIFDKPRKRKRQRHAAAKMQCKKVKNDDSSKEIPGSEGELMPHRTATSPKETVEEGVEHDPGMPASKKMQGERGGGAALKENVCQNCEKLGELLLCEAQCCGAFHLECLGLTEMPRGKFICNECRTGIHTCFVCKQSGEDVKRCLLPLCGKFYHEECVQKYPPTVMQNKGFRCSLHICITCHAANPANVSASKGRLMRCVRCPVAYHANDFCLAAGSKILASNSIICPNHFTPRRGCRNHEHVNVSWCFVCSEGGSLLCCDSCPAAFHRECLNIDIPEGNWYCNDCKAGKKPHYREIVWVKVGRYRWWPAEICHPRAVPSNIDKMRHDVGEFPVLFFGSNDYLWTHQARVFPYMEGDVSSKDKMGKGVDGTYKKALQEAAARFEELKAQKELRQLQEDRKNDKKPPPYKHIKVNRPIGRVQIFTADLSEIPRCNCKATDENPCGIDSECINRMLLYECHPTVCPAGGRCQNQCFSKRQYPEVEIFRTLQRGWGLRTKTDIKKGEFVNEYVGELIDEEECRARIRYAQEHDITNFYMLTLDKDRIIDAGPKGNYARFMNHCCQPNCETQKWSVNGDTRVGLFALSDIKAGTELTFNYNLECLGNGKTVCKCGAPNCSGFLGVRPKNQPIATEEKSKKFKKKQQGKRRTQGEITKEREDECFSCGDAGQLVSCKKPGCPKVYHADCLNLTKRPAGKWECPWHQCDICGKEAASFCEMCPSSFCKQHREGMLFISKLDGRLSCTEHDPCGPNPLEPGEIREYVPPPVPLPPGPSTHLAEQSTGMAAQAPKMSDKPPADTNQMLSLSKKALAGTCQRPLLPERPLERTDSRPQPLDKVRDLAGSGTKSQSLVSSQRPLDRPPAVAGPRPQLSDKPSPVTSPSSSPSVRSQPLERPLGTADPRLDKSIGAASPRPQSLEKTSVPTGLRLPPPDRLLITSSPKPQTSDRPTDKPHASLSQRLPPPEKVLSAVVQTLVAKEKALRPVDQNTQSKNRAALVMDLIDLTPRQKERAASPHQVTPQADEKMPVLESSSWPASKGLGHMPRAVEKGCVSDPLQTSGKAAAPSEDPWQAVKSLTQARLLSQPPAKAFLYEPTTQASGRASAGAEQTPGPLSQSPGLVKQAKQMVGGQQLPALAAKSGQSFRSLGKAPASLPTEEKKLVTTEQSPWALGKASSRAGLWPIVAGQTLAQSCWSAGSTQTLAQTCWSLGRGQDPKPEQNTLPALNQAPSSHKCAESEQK

HM-2 cells = test: MTT proliferation assay, control HM-2 cells; format: cell-based
Nup98-NSD1 cells [3] = test: Cytospins, differentiation of Nup98-NSD1 cells; format: cell-based
[4] = target: T2, NSD1 (1753-2095 fragment) (Homo sapiens, UniProt Q96L73); test: CETSA assay in HeLa cells; format: cell-based; settings: HeLa cells treated with 5 μM compound
T2 construct: expressed in transfected cells; host or cells: HeLa cells
T2 sequence (Q96L73 1753-2095): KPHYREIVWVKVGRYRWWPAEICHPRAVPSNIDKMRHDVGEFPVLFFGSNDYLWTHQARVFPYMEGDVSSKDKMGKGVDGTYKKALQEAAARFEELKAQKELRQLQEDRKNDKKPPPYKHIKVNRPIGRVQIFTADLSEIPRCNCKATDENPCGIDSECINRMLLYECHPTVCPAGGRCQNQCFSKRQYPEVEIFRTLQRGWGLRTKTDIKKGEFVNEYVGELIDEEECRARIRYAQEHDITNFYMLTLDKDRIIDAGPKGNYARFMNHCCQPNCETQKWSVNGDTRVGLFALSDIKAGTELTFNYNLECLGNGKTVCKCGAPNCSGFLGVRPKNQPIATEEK

[5] = system: Nup98-NSD1 subcutaneous model; test: Nup98-NSD1 subcutaneous leukemia model in mice; format: in vivo; settings: 25 mg/kg q.d., I.P.
Protocol: FIG. 6A-F. Pharmacokinetics and efficacy of 159 in Nup98-NSD1 leukemia model. A. Pharmacokinetics studies in mice treated with 25 mg/kg of 159 using I.P. administration. B. Efficacy in Nup98-NSD1 subcutaneous model. Mice were treated with 25 mg/kg q.d., I.P. C. Representative tumors from vehicle and 159 treated mice. […] E. Immuno-histochemistry analysis of H3K36me2 level in tumor samples of mice treated with vehicle (top) and 159 (bottom). […] F. Body weight of 159 treated animals.

Nup98-NSD1 cells [6] = test: MTT growth inhibition assay, Nup98-NSD1 cells; format: cell-based; settings: 3, 7 and 10 days
ZR-75-1 = test: MTT viability, 7 days treatment, ZR-75-1; format: cell-based; settings: Homo sapiens, 168 h, ZR-75-1, 7 days treatment
From the text: (§2) FIG. 8. Activity of NSD inhibitors in breast cancer cell lines.

MDA-MB-468 = test: MTT viability, 7 days treatment, MDA-MB-468; format: cell-based; settings: Homo sapiens, 168 h, MDA-MB-468, 7 days treatment
From the text: as §2

MCF7 = test: MTT viability, 7 days treatment, MCF7; format: cell-based; settings: Homo sapiens, 168 h, MCF7, 7 days treatment
From the text: as §2

SUM44 = test: Viability, 7 days treatment, SUM44; format: cell-based; settings: 168 h; SUM44, 7 days treatment
From the text: as §2

CC1CN1c1cc(O)c2nc(N)sc2c1 (stereo not shown) [Compound 151]
Irreversible binding to NSD1 detected by MS (NSD1 [1]; 10 μM compound incubated with NSD1 for 20 h): Irreversible binding
HSQC spectrum perturbation of NSD1 residues (NSD1 [2]): Several perturbed residues

Nc1nc2c(O)cc(N3CC3Cc3ccccc3Cl)cc2s1 (stereo not shown) [Compound 159, 2-Amino-6-(2-(2-chlorobenzyl)aziridin-1-yl)benzo[d]thiazol-4-ol]
Proliferation of control HM-2 cells (MTT) (HM-2 cells): does not inhibit proliferation
Differentiation of Nup98-NSD1 cells (cytospins) (Nup98-NSD1 cells [3]): differentiation of Nup98-NSD1 cells induced
CETSA stabilization of NSD1 (1753-2095 fragment) [4]: stabilization of NSD1
Expression of Hoxa7 in tumors [5]: reduced expression of Hoxa7
H3K36me2 level in tumor samples (immuno-histochemistry) [5]: Strong reduction of H3K36me2 level
Covalent engagement of NSD1 by mass spectrometry (NSD1 [1]; 6 μM compound incubated with 1 mM of NSD1 SET domain for 8 hours): binds covalently
Growth inhibition of Nup98-NSD1 cells (MTT) (Nup98-NSD1 cells [6]): time-dependent (3, 7 and 10 days) growth inhibition

C=CS(=O)(=O)NCc1cccc(NCC#Cc2cc(O)c3nc(N)sc3c2)c1F [Compound 225]
GI50 (ZR-75-1; read-out: GI50, viability): 53 nM
GI50 (MDA-MB-468; read-out: GI50, viability): 31 nM
GI50 (MCF7; read-out: GI50, viability): 487 nM
GI50 (SUM44): 341 nM

C=CS(=O)(=O)NCc1cccc(NCC#Cc2cc(O)c3nc(N)sc3c2)c1Cl [Compound 230]
GI50 (ZR-75-1; read-out: GI50, MTT viability): 100 nM
GI50 (MDA-MB-468; read-out: GI50, MTT viability): 35 nM
GI50 (MCF7; read-out: GI50, MTT viability): 1500 nM
